IC50 and inhibition data for 15 compounds are collected here from patent US6900200B2, “Tricyclic hydroxy carboxamides and derivatives thereof tocolytic oxytocin receptor antagonists” (Wyeth, priority 2001, dated 2005).

The target of this test is T1, human oxytocin receptor (Homo sapiens, UniProt P30559).
T1 construct: host or cells: CHO cells, pcDNA3.1 vector
T1 sequence (P30559 1-389): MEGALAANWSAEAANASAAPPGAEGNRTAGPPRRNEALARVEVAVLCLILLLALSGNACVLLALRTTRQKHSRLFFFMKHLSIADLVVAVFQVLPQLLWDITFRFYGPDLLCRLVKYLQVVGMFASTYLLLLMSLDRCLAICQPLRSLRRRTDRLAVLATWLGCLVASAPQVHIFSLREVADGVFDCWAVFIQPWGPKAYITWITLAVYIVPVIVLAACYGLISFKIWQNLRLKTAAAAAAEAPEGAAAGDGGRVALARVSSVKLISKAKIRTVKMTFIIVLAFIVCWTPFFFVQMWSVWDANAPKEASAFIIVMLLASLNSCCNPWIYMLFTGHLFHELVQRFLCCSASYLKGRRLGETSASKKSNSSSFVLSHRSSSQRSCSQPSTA
Put plainly: Oxytocin binding in CHO cell membranes expressing human oxytocin receptors ([3H]oxytocin radioligand binding). Conditions: for IC50: value printed in parentheses, read-out: OT (IC50); for inhibition at 0.1 µM: @ 100 nM, read-out: OT % inhibition @ 100 nM. The source says: Oxytocin Binding in Chinese Hamster Ovary Cell Membranes Expressing Human Oxytocin Receptors
Chinese Hamster Ovary (CHO) cells stably transfected with the human oxytocin receptor (cf. Tanizawa et al., U.S. Pat. No. 5,466,584 (1995) to Rohto Pharmaceutical Co. Ltd., Osaka, Japan) were obtained from M. Thibonnier, Case Western Reserve University School of Medicine, Cleveland, Ohio.
A. Passaging and Amplification of Cells
CHO cells transfected with the human oxytocin receptors obtained from M. Thibonnier (pcDNA3.1 vector) are allowed to grow to confluency (approx. >90%) in T-150 flasks under sterile conditions, in a cell culture medium of F-12 Nutrient Mixture (HAM) with L-glutamine (Gibco Cat. #11765-054) containing 15 mM HEPES (Gibco Cat. #15630-080), 1% antibiotic/antimycotic (add 5 mL 100×, Gibco Cat. #15240-062 per 500 mL F-12), 400 μg/mL of Geneticin (add 4 mL of 50 mg/mL per 500 mL F-12) and 10% Fetal Bovine Serum (Qualified, heat inactivated, Gibco Cat. #16140-063). The medium is removed by aspiration and the cells are washed with 10 mL of Hank's Balanced Salt solution (Gibco Cat. #14175-095). The salt solution is removed by aspiration and the cells trypsinized with 5 mL of trypsin-EDTA (0.05% trypsin, 0.53 mM EDTA-4Na, Gibco Cat. #25300-070) for 1 min. The trypsin is removed by aspiration and the cells dislodged by tapping. Cell Culture medium (e.g. 30 mL for 1:30 split) is immediately added and mixed well to inactivate trypsin. 1 mL of detached cells is added to new culture flasks containing fresh Cell Culture medium (e.g. into 25 mL per T-150 flask), and mixed gently. The cells are incubated at 37° C. in 5% CO2. The medium is changed at 3 to 4 days interval (or as appropriate). The cells grow to confluency (approx. >75%-95%) within 7-8 days. All steps are done under sterile conditions.
The cells are washed twice gently with Hank's Balanced Salt solution (e.g., use 10 mL per T-1 50 flask). The excess solution is removed and the cells bathed for 15-30 min. in an enzyme-free Cell Dissociation Buffer (e.g., use 8 mL Hank's Based, Gibco Cat. #13150-016 per T-150 flask) until cells are loosened. The contents are transferred to centrifuge tubes (50 mL size) kept in ice bath. All subsequent steps are done at 4° C. The tubes are centrifuged at 300×g for 15 min (1380 rpm on SORVAL, Model RT6000D, using rotor for 50 mL tubes). The supernatant is discarded and the cells suspended in homogenizing buffer (10 mM Tris-HCl containing 0.25 M sucrose and 1 mM EDTA, pH 7.4) ensuring that the volume of the buffer is about ten times the volume of the cell pellet. The cells are pooled into a centrifuge tube (50 mL) and homogenized with a Polytron at setting 6 for 10 sec. The homogenate is transferred into a Potter-Elvjehm homogenizer and homogenized with 3 strokes. The homogenate is centrifuged at 1500×g for 10 min at 4° C. (3100 rpm using SORVAL, model RT6000D, using rotor for 50 mL tubes). The pellet is discarded. The supernatant is centrifuged at 100,000×g for 60 min. at 4° C. (Beckman L8-80M ultracentrifuge; spin at 37,500 rpm with rotor type 70 Ti for 50 mL tubes; 38,000 rpm with type 80Ti for 15 mL tubes; or 35,800 rpm with rotor type 45Ti). The supernantant is discarded and the pellet suspended in 3 to 4 mL of Tris buffer (50 mM TRIS—HCl, pH 7.4). The protein content is estimated by the Bradford or Lowry method. The volume of the membrane suspension is adjusted with the membrane buffer (50 mM Tris-HCl containing 0.1% BSA and 0.1 mM PMSF) to give 3.0 mg/mL (or as appropriate) of protein. The membranes are aliquoted and stored at −70° C.
C. Radioligand Binding Assay
In wells of a 96-well format microtiter plate, is added 90, 110 or 130 μL (to make up a final volume of 200 μL) of assay buffer containing 50 mM of Tris-HCl (pH 7.4), […], 1 mg % aprotinin, 1 mg % leupeptin, 2 mg % 1,10-phenanthroline, 10 mg % trypsin inhibitor, and 0.1 mM PMSF. […]

Take `Cc1cc(C(=O)N2Cc3ccc(C(=O)N4CCN(C[C@H](O)CO)CC4)n3Cc3ccccc32)ccc1-c1ccccc1C(F)(F)F` [Example 5, (2S)-3-{4-[(10-{[2-Methyl-2′-trifluoromethyl-[1,1′-biphenyl]-4-yl]carbonyl}-10,11-dihydro-5H-pyrrolo[2,1-c][1,4]benzodiazepin-3-yl)carbonyl]piperazin-1-yl}propane-1,2-diol]: the IC50 was determined as 35.8 nM.
As for `COc1cc(-c2ccccc2C(F)(F)F)c(Cl)cc1C(=O)N1Cc2ccc(C(=O)N(C)C[C@H](O)[C@@H](O)[C@H](O)[C@H](O)CO)n2Cc2ccccc21` [Example 20, 10-{[6-Chloro-3-methoxy-2′-trifluoromethyl-[1,1′-biphenyl]-4-yl]carbonyl}-N-methyl-N-[(2S,3R,4R,5R)-2,3,4,5,6-pentahydroxyhexyl]-10,11-dihydro-5H-pyrrolo[2,1-c][1,4]benzodiazepine-3-carboxamide], the 50% inhibitory concentration (IC50) came out at 1.09 nM.
Still for that read-out and setting: the same measure for `Cc1cc(C(=O)N2Cc3ccc(C(=O)N(C)C[C@H](O)[C@@H](O)[C@H](O)[C@H](O)CO)n3Cc3ccccc32)ccc1-c1ccccc1C(F)(F)F` [Example 4, 10-[(2-Methyl-2′-trifluoromethyl-[1,1′-biphenyl]-4-yl)carbonyl]-10,11-dihydro-5H-pyrrolo[2,1-c][1,4]benzodiazepine-3-carboxylic acid methyl-((2S,3R,4R,5R)-2,3,4,5,6-pentahydroxy-hexyl)-amide]: 3.43 nM.
Regarding `COc1ccccc1-c1ccc(C(=O)N2Cc3ccc(C(=O)N4CCN(CCO)CC4)n3Cc3ccccc32)cc1C` [Example 40, [4-(2-Hydroxyethyl)-1-piperazinyl]{10-[(2′-methoxy-2-methyl[1,1′-biphenyl]-4yl)carbonyl]-10,11-dihydro-5H-pyrrolo[2,1-c][1,4]benzodiazepin-3-yl}methanone], the inhibition at 0.1 µM worked out at 93%.
Regarding `COc1cccc(-c2ccc(C(=O)N3Cc4ccc(C(=O)N5CCN(CCO)CC5)n4Cc4ccccc43)cc2C)c1` [Example 44, [4-(2-Hydroxyethyl)-1-piperazinyl]{10-[(3′-methoxy-2-methyl[1,1′-biphenyl]-4yl)carbonyl]-10,11-dihydro-5H-pyrrolo[2,1-c][1,4]benzodiazepin-3-yl}methanone], the inhibition at 0.1 µM was 83%.
`COc1cc(C(=O)N2Cc3ccc(C(=O)N(C)C[C@@H](O)[C@H](O)[C@H](O)[C@@H](O)CO)n3Cc3ccccc32)ccc1-c1ccccc1C(F)(F)F` (stereo in doubt) [Example 23, 10-{[2-Methoxy-2′-trifluoromethyl-[1,1′-biphenyl]-4-yl]carbonyl}-N-methyl-N-[(2R,3S,4R,5S)-2,3,4,5,6-pentahydroxyhexyl]-10,11-dihydro-5H-pyrrolo[2,1-c][1,4]benzodiazepine-3-carboxamide]: the IC50 was 4.09 nM.
The same measure, in the same setting: in the case of `COCC(CN(C)C(=O)c1ccc2n1Cc1ccccc1N(C(=O)c1ccc(-c3ccccc3C(F)(F)F)c(C)c1)C2)OC` (stereo not drawn) [Example 10, N-(2,3-Dimethoxypropyl)-N-methyl-10-{[2-methyl-2′-trifluoromethyl-[1,1′-biphenyl]-4-yl]carbonyl}-10,11-dihydro-5H-pyrrolo[2,1-c][1,4]benzodiazepine-3-carboxamide] it was 5.31 nM.
For `COc1ccccc1-c1ccc(C(=O)N2Cc3ccc(C(=O)N(C)C[C@H](O)CO)n3Cc3ccccc32)cc1C` (single isomer, unassigned) [Example 15], the inhibition at 0.1 µM turned out to be 101%.
As to `Cc1cc(C(=O)N2Cc3ccc(C(=O)NC(CO)(CO)CO)n3Cc3ccccc32)ccc1-c1ccccc1C(F)(F)F` [Example 3, 10-[(2-Methyl-2′-trifluoromethyl-[1,1′-biphenyl]-4-yl)carbonyl]-10,11-dihydro-5H-pyrrolo[2,1-c][1,4]benzodiazepine-3-carboxylic acid (2-hydroxy-1,1-bis-hydroxymethyl-ethyl)-amide], the IC50 is 6.53 nM.
On to `COc1cc2c(cc1OC)N(C(=O)c1ccc(-c3ccccc3C(F)(F)F)c(C)c1)Cc1ccc(C(=O)N(C)CC(O)CO)n1C2` (stereo not drawn) [Example 18, N-(2,3-Dihydroxypropyl)-7,8-dimethoxy-N-methyl-10-{[2-methyl-2′-trifluoromethyl-[1,1′-biphenyl]-4-yl]carbonyl}-10,11-dihydro-5H-pyrrolo[2,1-c][1,4]benzodiazepine-3-carboxamide], for which the inhibition at 0.1 µM is 36%.
Turning to “{(2S)-1-[(10-{[2-Methoxy-2(trifluoromethyl)[1,1′-biphenyl]-4-yl]carbonyl}-10,11-dihydro-5H-pyrrolo[2,1-c][1,4]benzodiazepin-3-yl)carbonyl]pyrrolidin-2-yl}-methanol [Example 36]”, the IC50 was 7.95 nM.
As to `COc1cc(C(=O)N2Cc3ccc(C(=O)N4CCN(CCO)CC4)n3Cc3ccccc32)ccc1-c1cccc2ccccc12` [Example 41, [4-(2-Hydroxyethyl)-1-piperazinyl]{10-[3-methoxy-4-(1-naphthyl)benzoyl]-10,11-dihydro-5H-pyrrolo[2,1-c][1,4]benzodiazepin-3-yl}methanone], the inhibition at 0.1 µM came to 71%.
The same measure, in the same setting: the same measure for `COc1ccccc1-c1ccc(C(=O)N2Cc3ccc(C(=O)N4CCN(CCO)CC4)n3Cc3ccccc32)cc1OC` [Example 43, {10-[(2,2′-Dimethoxy[1,1′-biphenyl]-4-yl)carbonyl]-10,11-dihydro-5H-pyrrolo[2,1-c][1,4]benzodiazepin-3-yl}[4-(2-hydroxyethyl)-1-piperazinyl]methanone]: 75%; for `COc1cc(C(=O)N2Cc3ccc(C(=O)N4CCN(CCO)CC4)n3Cc3ccccc32)ccc1-n1c(C)ccc1C` [Example 52, {10-[4-(2,5-Dimethyl-1H-pyrrol-1-yl)-3-methoxybenzoyl]-10,11-dihydro-5H-pyrrolo[2,1-c][1,4]benzodiazepin-3-yl}[4-(2-hydroxyethyl)-1-piperazinyl]methanone]: 36%.
On to `COc1cc(C(=O)N2Cc3ccc(C(=O)N(C)CC(O)CO)n3Cc3ccccc32)ccc1-c1ccccc1C(F)(F)F` (stereo not drawn) [Example 21, N-(2,3-Dihydroxypropyl)-10-{[2-methoxy-2′-trifluoromethyl-[1,1′-biphenyl]-4-yl]carbonyl}-N-methyl-10,11-dihydro-5H-pyrrolo[2,1-c][1,4]benzodiazepine-3-carboxamide], for which the IC50 was 1.73 nM.

The IC50 is the concentration needed to halve the response being measured. By inhibition is commonly meant the relative decrease from the control value, in per cent.
